Test [1] addresses ABL (Homo sapiens, UniProt P00519). Briefly: ABL Kinase Activity Assay (Elisa), ABL. The test is classed as biochemical. As to conditions: ATP 100 μM, read-out: Abl Enzymetic assay (Elisa) % inhibition. Here is the method: (§1) ABL Kinase Activity Assay
(§2) The disclosed compounds were assayed for their ability to inhibit the activity of ABL kinase. Nunc Maxisorb plates were coated with streptavidin by overnight incubation with 100 μL per well of 1 μg/ml streptavidin in DPBS. Prior to the experiment, the plates were washed with TBST (3×200 μL) and blocked for at least 3 hours by adding 150 μL of 5% BSA/TBST. The plates were washed with TBST (3×200 μL/well) and left dry immediately before the capture step.
(§3) The disclosed test compounds and controls (Gleevec) were prepared using the following assay buffer@10× desired final concentration (50 mM Tris pH 7.0, 0.02 mg/ml BSA, 10 mM MgCl2, 0.1 mM Na3VO4, 1 mM EGTA, 0.01% NP-40, 1 mM DTT in 10% glycerol/water). In a reaction plate, 5 μl test article (or control) and 30 μl ABL or ABL T315I (0.089 nM final concentration, in the above buffer) were added rapidly. The plate was incubated for 20 minutes. To the reaction plate was added ATP (100 μM final concentration) and AblTide (128 nM final concentration) in a volume of 15 μl. The plate was incubated at room temperature for one hour.
(§4) From the reaction plate, 40 μl was transferred to the streptavidin coated plate. The capture plate was incubated at room temperature for 30 minutes, then washed 3× with TBST. To the capture plate was added 100 μL/well of cell signaling anti-phospho tyrosine at a dilution of 1:3000 in 2% BSA/TBST. The plate was incubated for two hours at room temperature then washed 3× with TBST. To the capture plate was added 100 μL/well of alkaline phosphatase tagged goat anti mouse antibody at a dilution of 1:4000 in 2% BSA/TBST. The plate was incubated for one hour at room temperature then washed 3× with TBST.
(§5) The fluorescent readout was initiated by the addition of 100 μl/well of Attophos reagent (6 mg/10 mL). The reading was done on the Perkin Elmer Envision system.

Test [2] concerns DLD-1. Briefly: MTS assay, DLD-1 cells. The test is classed as cell-based. As to conditions: Homo sapiens, 72 hours. On the procedure:
(§6) Cells were maintained at 37° C., 5% CO2 in DMEM media supplemented with 1% fetal bovine serum, penicillin/streptomycin and fungizone (Invitrogen). Cells were seeded into 96-well tissue culture plates at 3000 per well and cultured at 37° C. for 18 hours. Test compounds were dissolved and diluted to 300× in DMSO then diluted 1:40 in DMEM. Cells were incubated with test compounds for 72 hours followed by incubation with tetrazolium compound (3-(4,5-dimethylthiazol-2-yl)-5-(3-carboxymethoxyphenyl)-2-(4-sulfophenyl)-2H-tetrazolium, inner salt; MTS) and the electron coupling reagent, phenazine methosulfate (PMS) for 4 hours. […] The ability of compounds to inhibit cell growth in this assay is correlated with the reduction of dehydrogenase enzyme activity found in metabolically active cells. The measurement of the absorbance of the formazan was assessed using an ENVISION™ (Perkin Elmer) microplate reader at 492 nm. The calculated IC50 value is the concentration of the test compound that causes a 50% decrease in the absorbance.

Test [3] deals with ABL T315I (Homo sapiens, UniProt P00519, T315I). Kind of test: ABL Kinase Activity Assay (Elisa), ABL T315I. As to conditions: ATP 100 μM, read-out: Abl(T315I) Enzymetic assay (Elisa) % inhibition. The test is classed as biochemical. Here is the method: as §1, §2, §3, §4, §5
The test system of test [4] is KATO III. Kind of test: MTS assay, KATO III cells. The class given is cell-based. As to conditions: Homo sapiens, 72 hours. Here is the method:
as §6
(In general: Formazan colour is commonly taken as a measure of viable cells.)

Test [5] concerns NCI-H1299. Kind of test: MTS assay, NCI-H1299 cells. The class given is cell-based. As to conditions: Homo sapiens, 72 hours. Here is the method:
as §6

The test system of test [6] is PACA-2. Briefly: MTS assay, PACA-2 cells. As to conditions: 72 hours. The test is classed as cell-based. On the procedure: as §6
The subject of test [7] is MDA-MB-231. Kind of test: MTS assay, MDA-MB-231 cells. As to conditions: Homo sapiens, 72 hours. The test is classed as cell-based. Here is the method:
as §6

Test [8] relates to PC-3. Briefly: MTS assay, PC-3 cells. The class given is cell-based. As to conditions: Homo sapiens, 72 hours. Here is the method:
as §6

For the compound `Cc1cccc(CCNc2ncc3c(n2)-c2cccnc2Nc2cnccc2-3)c1` [Example 41, N-[2-(3-methylphenyl)ethyl]-9H-dipyrido[2,3-b:4′,3′-f]pyrimido[4,5-d]azepin-2-amine], the inhibition – broadly, the percentage by which the read-out fell short of the control – at 10 µM is 80 to 100% in test [1]; below 50% in test [2]; 80 to 100% in test [3]; 50 to 79% in test [4]; below 50% in test [5]; below 50% in test [6]. Also, the inhibition at 10 µM in test [7] is below 50%.
With `COc1ccc(CNc2ncc3c(n2)-c2cccnc2Nc2cnccc2-3)cc1OC` [Example 47, N-(3,4-dimethoxybenzyl)-9H-dipyrido[2,3-b:4′,3′-f]pyrimido[4,5-d]azepin-2-amine], the inhibition at 10 µM in test [1] was 80 to 100%; in test [2], 50 to 79%; in test [3], 80 to 100%; in test [4], below 50%; in test [5] it was 50 to 79%; in test [6] it was below 50%. The same compound gave an inhibition at 10 µM in test [7] below 50%.
On to `c1ccc(CNc2ncc3c(n2)-c2cccnc2Nc2cnccc2-3)nc1` [Example 49, N-(pyridin-2-ylmethyl)-9H-dipyrido[2,3-b:4′,3′-f]pyrimido[4,5-d]azepin-2-amine], for which the inhibition at 10 µM in test [8], in test [2], in test [4], in test [5], in test [6] and in test [7] was 80 to 100% each time.
For the compound `CC(=O)N1CCN(c2ncc3c(n2)-c2cccnc2Nc2cnccc2-3)CC1` [Example 57, 2-(4-acetylpiperazin-1-yl)-9H-dipyrido[2,3-b:4′,3′-f]pyrimido[4,5-d]azepine], the inhibition at 10 µM in test [8], in test [2], in test [4], in test [5], in test [6] and in test [7] was 80 to 100% throughout.
As to `CC(C)(C)C(=O)N1CCN(c2ncc3c(n2)-c2cccnc2Nc2cnccc2-3)CC1` [Example 58, 2-[4-(2,2-dimethylpropanoyl)piperazin-1-yl]-9H-dipyrido[2,3-b:4′,3′-f]pyrimido[4,5-d]azepine], the inhibition at 10 µM was 50 to 79% in test [8]; 80 to 100% in test [2]; 50 to 79% in test [4]; 80 to 100% in test [6]; below 50% in test [7].
As to `Clc1cccc(CNc2ncc3c(n2)-c2cccnc2Nc2ccccc2-3)c1` [Example 61, N-(3-chlorobenzyl)-9H-pyrido[2,3-b]pyrimido[4,5-d][1]benzazepin-2-amine], the inhibition at 10 µM in test [8], in test [2], in test [4], in test [5] and in test [7] was below 50% in each case.
Consider `CC(=O)N1CCN(c2ncc3c(n2)-c2cccnc2Nc2ccccc2-3)CC1` [Example 68, 2-(4-acetylpiperazin-1-yl)-9H-pyrido[2 ,3-b]pyrimido[4,5-d][1]benzazepine], for which the inhibition at 10 µM in test [8] is 80 to 100%; in test [2] it was 80 to 100%; in test [4], 80 to 100%; in test [5] it was 50 to 79%; in test [6] it was 80 to 100%; in test [7], 80 to 100%.
In the case of `Fc1ccc(CNc2ncc3c(n2)-c2ccccc2Nc2cnccc2-3)c(F)c1` [Example 69, N-(2,4-difluorobenzyl)-9H-pyrido[3,4-b]pyrimido[5,4-d][1]benzazepin-2-amine], the inhibition at 10 µM in test [8], in test [2], in test [4], in test [5], in test [6] and in test [7] was 80 to 100% each time.
